This assay concerns the target T1, ΔF508-CFTR (Homo sapiens, UniProt P13569, DEL508-508).
T1 construct: expressed in transfected cells
Kind of assay: Membrane potential optical assay for ΔF508-CFTR potentiation (double-addition HTS, FLIPR III). It is filed as cell-based. The conditions noted are these: for Emax: 100% efficacy is the maximum response obtained with 4-methyl-2-(5-phenyl-1H-pyrazol-3-yl)phenol. The text has this: Membrane Potential Optical Methods for Assaying ΔF508-CFTR Modulation Properties of Compounds
The assay utilizes fluorescent voltage sensing dyes to measure changes in membrane potential using a fluorescent plate reader (e.g., FLIPR III, Molecular Devices, Inc.) as a readout for increase in functional ΔF508-CFTR in NIH 3T3 cells. The driving force for the response is the creation of a chloride ion gradient in conjunction with channel activation by a single liquid addition step after the cells have previously been treated with compounds and subsequently loaded with a voltage sensing dye.
To identify potentiators of ΔF508-CFTR, a double-addition HTS assay format was developed. This HTS assay utilizes fluorescent voltage sensing dyes to measure changes in membrane potential on the FLIPR III as a measurement for increase in gating (conductance) of ΔF508 CFTR in temperature-corrected ΔF508 CFTR NIH 3T3 cells. The driving force for the response is a Cl^− ion gradient in conjunction with channel activation with forskolin in a single liquid addition step using a fluorescent plate reader such as FLIPR III after the cells have previously been treated with potentiator compounds (or DMSO vehicle control) and subsequently loaded with a redistribution dye.
Bath Solution #1: (in mM) NaCl 160, KCl 4.5, CaCl2 2, MgCl2 1, HEPES 10, pH 7.4 with NaOH.
Chloride-Free Bath Solution: Chloride Salts in Bath Solution #1 are Substituted with Gluconate Salts.
NIH3T3 mouse fibroblasts stably expressing ΔF508-CFTR are used for optical measurements of membrane potential. The cells are maintained at 37° C. in 5% CO2 and 90% humidity in Dulbecco's modified Eagle's medium supplemented with 2 mM glutamine, 10% fetal bovine serum, 1×NEAA, β-ME, 1× pen/strep, and 25 mM HEPES in 175 cm^2 culture flasks. For all optical assays, the cells were seeded at ˜20,000/well in 384-well matrigel-coated plates and cultured for 2 hrs at 37° C. before culturing at 27° C. for 24 hrs. for the potentiator assay. For the correction assays, the cells are cultured at 27° C. or 37° C. with and without compounds for 16-24 hours. Electrophysiological Assays for assaying ΔF508-CFTR modulation properties of compounds.
Compounds of the invention are useful as modulators of ATP binding cassette transporters. Examples of activities and efficacies of the compounds of Formula (I) are shown below in Table 3. The compound activity is illustrated with “+++” if activity was measured to be less than 2.0 μM, “++” if activity was measured to be from 2 μM to 5.0 μM, “+” if activity was measured to be greater than 5.0 μM, and “−” if no data was available. The efficacy is illustrated with “+++” if efficacy was calculated to be greater than 100%, “++” if efficacy was calculated to be from 100% to 25%, “+” if efficacy was calculated to be less than 25%, and “−” if no data was available. It should be noted that 100% efficacy is the maximum response obtained with 4-methyl-2-(5-phenyl-1H-pyrazol-3-yl)phenol.

Counter-ions that a name gives are not always drawn.

The EC50 is the midpoint of the concentration-response curve. By Emax is commonly meant the maximal effect, on the per cent scale that the assay sets.

T1 sequence (P13569 with tags, fused parts or gaps DEL508-508): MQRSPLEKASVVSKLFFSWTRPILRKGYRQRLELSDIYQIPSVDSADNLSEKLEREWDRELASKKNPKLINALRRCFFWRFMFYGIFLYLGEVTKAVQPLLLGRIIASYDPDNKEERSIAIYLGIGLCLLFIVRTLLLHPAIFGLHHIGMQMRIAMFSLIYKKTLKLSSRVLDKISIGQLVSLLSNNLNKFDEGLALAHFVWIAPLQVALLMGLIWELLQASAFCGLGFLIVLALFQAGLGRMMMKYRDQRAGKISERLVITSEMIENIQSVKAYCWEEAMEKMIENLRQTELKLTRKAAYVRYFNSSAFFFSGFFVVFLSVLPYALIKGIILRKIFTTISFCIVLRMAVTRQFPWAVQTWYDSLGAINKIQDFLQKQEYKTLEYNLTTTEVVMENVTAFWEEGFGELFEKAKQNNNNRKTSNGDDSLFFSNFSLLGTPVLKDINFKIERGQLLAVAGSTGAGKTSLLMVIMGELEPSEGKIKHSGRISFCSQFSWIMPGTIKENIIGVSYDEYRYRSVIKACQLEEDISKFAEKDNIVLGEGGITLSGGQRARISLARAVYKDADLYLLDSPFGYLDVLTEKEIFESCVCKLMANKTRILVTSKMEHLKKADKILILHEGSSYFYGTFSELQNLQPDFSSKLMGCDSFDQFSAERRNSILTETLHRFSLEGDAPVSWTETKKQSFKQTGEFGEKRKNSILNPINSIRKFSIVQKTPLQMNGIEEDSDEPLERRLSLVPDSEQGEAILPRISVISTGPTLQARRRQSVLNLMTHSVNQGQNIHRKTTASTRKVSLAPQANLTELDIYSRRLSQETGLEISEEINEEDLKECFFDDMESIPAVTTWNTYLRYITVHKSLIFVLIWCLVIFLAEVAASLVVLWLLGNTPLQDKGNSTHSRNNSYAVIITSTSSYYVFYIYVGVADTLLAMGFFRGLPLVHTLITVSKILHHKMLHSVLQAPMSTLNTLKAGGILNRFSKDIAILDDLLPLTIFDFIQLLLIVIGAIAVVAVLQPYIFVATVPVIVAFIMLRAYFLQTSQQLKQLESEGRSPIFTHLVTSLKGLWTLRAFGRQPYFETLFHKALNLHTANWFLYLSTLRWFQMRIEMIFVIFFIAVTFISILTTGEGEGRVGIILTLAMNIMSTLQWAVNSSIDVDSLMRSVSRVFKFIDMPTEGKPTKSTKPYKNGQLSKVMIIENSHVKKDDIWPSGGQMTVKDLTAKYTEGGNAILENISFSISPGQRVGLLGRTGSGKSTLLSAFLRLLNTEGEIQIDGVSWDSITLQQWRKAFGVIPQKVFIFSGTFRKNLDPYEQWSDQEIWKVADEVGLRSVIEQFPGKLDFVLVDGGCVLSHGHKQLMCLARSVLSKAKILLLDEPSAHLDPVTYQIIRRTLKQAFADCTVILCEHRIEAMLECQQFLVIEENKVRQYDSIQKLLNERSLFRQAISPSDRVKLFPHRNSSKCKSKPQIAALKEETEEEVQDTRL

As for `Cc1cc(N2C3CCC2CC3)ncc1NC(=O)c1c[nH]c2cccc(C)c2c1=O` [Compound 1, N-(6-(7-azabicyclo[2.2.1]heptan-7-yl)-4-methylpyridin-3-yl)-5-methyl-4-oxo-1,4-dihydroquinoline-3-carboxamide hydrochloride], the EC50 was < 2000 nM and the Emax was 25 to 100%.
The corresponding values for `Cc1cccc2[nH]cc(C(=O)Nc3ccc(N4C5CCC4CC5)nc3C(F)(F)F)c(=O)c12` [Compound 3] are < 2000 nM and 25 to 100%.
In the same order, the values of `O=C(Nc1ccc(N2C3CCC2CC3)nc1C(F)(F)F)c1c[nH]c2cccc(C(F)(F)F)c2c1=O` [Compound 2, N-(6-(7-azabicyclo[2.2.1]heptan-7-yl)-2-(trifluoromethyl)pyridin-3-yl)-4-oxo-5-(trifluoromethyl)-1,4-dihydroquinoline-3-carboxamide] are < 2000 nM and 25 to 100%.

The record behind these values is US8314239B2, “Modulators of cystic fibrosis transmembrane conductance regulator” (priority 2008, dated 2012).
